How the values were obtained:
ABCC1 = target: T1, ABCC1 (Homo sapiens, UniProt P33527); assay: calcein AM accumulation assay in MDCKII-ABCC1 cells; format: cell-based; details: read-out: IC50, inhibition of ABCC1-mediated calcein AM efflux
T1 construct: expressed in transfected cells; host or cells: MDCKII-ABCC1 (from Dr. Alfred Schinkel, The Netherlands Cancer Institute)
Procedure: Cellular accumulation assay with hoechst 33342 and calcein AM was performed as described previously. Briefly, MDCKII-par, MDCKII-ABCB1, MDCKII-ABCG2, and MDCKII-ABCC1 cells were seeded at densities of 5.0 × 10^4, 5.0 × 10^4, 5.5 × 10^4, and 6.0 × 10^4 cells/well, respectively, on a transparent 96-well plate and grown to full confluence for 24 h under standard conditions. The cells were then washed twice with 1 × PBS, after which was added either a dilution of ensartinib in Opti-MEM (1, 5, 10, 25, or 50 µM) or a specific inhibitor to act as a positive control (1 µM LY335979, 1 µM Ko143, or 25 µM MK-571 for ABCB1, ABCG2, or ABCC1, respectively). Cells were pre-incubated for 10 min, then 8 µM hoechst 33342 (a model substrate for ABCB1 and ABCG2) or 2 µM calcein AM (ABCC1 substrate) diluted in Opti-MEM was quickly added to all wells other than those containing blank samples. The intracellular levels of the substrates were then determined at 1 min intervals for 30 min using a microplate reader (Infinite M200 Pro, Tecan, Männedorf, Switzerland). Fluorescence was monitored in bottom mode using excitation/emission wavelengths of 350/465 and 485/535 nm for hoechst 33342 and calcein AM, respectively.

[1] = MTT proliferation / drug combination assay, MDCKII-ABCG2; format: cell-based, canine; details: dog, MDCKII-ABCG2 cells, 48 h, MTT, read-out: IC50, sensitivity to ensartinib
Procedure: (§1) MTT proliferation assay was performed as described previously.

MDCKII-ABCG2 cells = assay: as above; format: cell-based, canine
Procedure: as §1

[2] = XTT proliferation / drug combination assay, HL60-ABCB1; details: human, HL60-ABCB1 cells
Procedure: (§2) The MTT method is not readily adapted for use with suspension cell cultures, therefore the XTT assay was used to assess the proliferation of HL60 cells. Briefly, HL60-par, HL60-ABCB1, HL60-ABCG2, and HL60-ABCC1 cells were seeded at 2 × 10^4 cells/well in 96-well culture plates. Immediately after seeding, dilutions of the tested drugs or drug combinations were added to the cells. The plates were then incubated under standard conditions (37 °C, 5% CO2) for 48 h, after which XTT solution in PBS (1 mg/mL) and phenazine methosulfate (7.50 µg/mL) were added to the cells and the plates were incubated for another 5 h. Finally, the cells’ absorbance was measured at 450 nm using a microplate reader (Infinite M200, Tecan, Salzburg, Austria). This method was used to assess the effect of ABC transporters on sensitivity to ensartinib and in drug combination assays.
(§3) Experiments focusing on the modulation of ABC transporter-mediated resistance were performed as described previously. The parent MDCKII and HL60 cells and their ABCB1-, ABCG2-, and ABCC1-overexpressing counterparts were seeded at the densities specified above onto 96-well culture plates and cultured for 24 h. The medium was subsequently replaced with serial dilutions of ensartinib alone or with various concentrations of a model MDR-susceptible cytostatic agent (daunorubicin or mitoxantrone) with or without 10 µM ensartinib. After 48 h incubation, the cells’ viability was determined as described above. In addition to performing IC50-shift analyses, the viability measurements were converted to FA (fraction of cells affected) values and the effects of drug combinations were quantified using the Chou-Talalay combination index (CI) method as implemented in CompuSyn 3.0.1 (ComboSyn Inc., Paramus, NJ, USA). The effects of concomitantly administered drugs were classified as synergistic (CI < 0.9), additive (0.9 < CI < 1.1), or antagonistic (CI > 1.1) based on the computed CI values.

HL60-ABCB1 cells = assay: as above; details: HL60-ABCB1
Procedure: as §2, §3

A431-parent cells = assay: MTT proliferation assay, A431-parent; format: cell-based; details: Homo sapiens, 48 h, read-out: IC50, sensitivity to ensartinib
Procedure: as §1

ABCB1, ABCG2, ABCC1 mRNA = assay: Gene induction study (qRT-PCR), ABC transporter mRNA; format: cell-based, human; details: 0.5 µM ensartinib; 24 and 48 h; Caco-2, LS174T, A549, NCI-H1299 cells
Procedure: Gene induction studies were performed with minor modifications as described recently. Although all gene induction studies involved the use of quantitative real-time reverse transcription PCR (qRT-PCR) to measure mRNA levels, the methods used for specific cell lines varied considerably. Therefore, they are described separately.
For transporter-oriented studies, A549 (24 × 10^4 cells/well), NCI-H1299 (18 × 10^4 cells/well), Caco-2 (50 × 10^4 cells/well), or LS174T (100 × 10^4 cells/well) cells were plated in 12-well plates 24 h before the experiment. Subsequently, the medium was replaced with fresh medium containing 0.5 µM ensartinib, 25 µM rifampicin, or 0.1% DMSO (vehicle control). […] The RNA yield was measured using a NanoDrop ND-1000 spectrophotometer (American Laboratory Trading, East Lyme, CT, USA) while RNA quality and integrity were verified by agarose gel electrophoresis. […] The expression of ABCB1, ABCG2 and ABCC1 was assessed using gb Easy PCR Master Mix and TaqMan qRT-PCR systems in 384-well plates according to the manufacturer´s instructions, amplifying 20 ng of cDNA per reaction. qRT-PCR was performed using QuantStudio 6 (Life Technologies, Carlsbad, CA, USA) with predefined thermal cycling conditions (95 °C for 3 min then 40 repeats of a cycle of 95 °C for 10 s and 60 °C for 20 s). […]

T1 sequence (P33527 whole entry): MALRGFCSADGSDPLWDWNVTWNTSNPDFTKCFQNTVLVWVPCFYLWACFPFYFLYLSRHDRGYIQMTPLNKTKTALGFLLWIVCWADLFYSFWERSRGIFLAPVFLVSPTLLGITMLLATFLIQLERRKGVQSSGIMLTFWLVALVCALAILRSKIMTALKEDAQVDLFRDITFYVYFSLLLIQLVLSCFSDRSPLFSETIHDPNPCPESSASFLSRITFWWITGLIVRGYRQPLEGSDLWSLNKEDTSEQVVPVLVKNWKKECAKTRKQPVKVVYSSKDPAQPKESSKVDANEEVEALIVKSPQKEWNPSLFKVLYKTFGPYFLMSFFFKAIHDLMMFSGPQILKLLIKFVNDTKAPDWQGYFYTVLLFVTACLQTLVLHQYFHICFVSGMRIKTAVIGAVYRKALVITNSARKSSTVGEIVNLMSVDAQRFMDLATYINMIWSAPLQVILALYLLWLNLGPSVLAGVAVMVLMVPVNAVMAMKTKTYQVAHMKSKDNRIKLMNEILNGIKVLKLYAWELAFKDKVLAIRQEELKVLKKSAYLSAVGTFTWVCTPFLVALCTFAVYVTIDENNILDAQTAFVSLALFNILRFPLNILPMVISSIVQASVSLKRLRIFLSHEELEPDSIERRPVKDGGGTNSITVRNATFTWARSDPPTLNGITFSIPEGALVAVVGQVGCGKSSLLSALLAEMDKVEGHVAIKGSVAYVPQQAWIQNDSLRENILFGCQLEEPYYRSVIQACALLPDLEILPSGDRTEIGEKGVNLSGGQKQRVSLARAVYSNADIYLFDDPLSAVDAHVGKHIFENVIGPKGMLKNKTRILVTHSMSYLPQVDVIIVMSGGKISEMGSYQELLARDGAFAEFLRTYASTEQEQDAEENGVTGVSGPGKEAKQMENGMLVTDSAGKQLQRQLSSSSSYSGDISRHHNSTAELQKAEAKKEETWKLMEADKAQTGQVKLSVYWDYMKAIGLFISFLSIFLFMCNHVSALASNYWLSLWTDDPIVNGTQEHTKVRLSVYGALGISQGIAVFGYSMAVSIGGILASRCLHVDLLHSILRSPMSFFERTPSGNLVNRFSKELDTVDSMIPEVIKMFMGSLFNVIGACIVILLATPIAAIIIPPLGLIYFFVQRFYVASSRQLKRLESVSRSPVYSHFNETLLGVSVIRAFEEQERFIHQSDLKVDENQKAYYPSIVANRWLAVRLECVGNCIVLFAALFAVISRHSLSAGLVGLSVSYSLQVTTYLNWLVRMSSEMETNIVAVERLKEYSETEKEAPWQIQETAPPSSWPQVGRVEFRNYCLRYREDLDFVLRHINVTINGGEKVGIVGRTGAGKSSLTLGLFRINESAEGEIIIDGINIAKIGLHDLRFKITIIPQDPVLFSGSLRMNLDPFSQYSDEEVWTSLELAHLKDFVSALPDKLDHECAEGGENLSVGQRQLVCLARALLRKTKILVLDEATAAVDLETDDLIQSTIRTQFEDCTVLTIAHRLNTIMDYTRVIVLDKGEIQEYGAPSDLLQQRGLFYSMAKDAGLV

IC50 (ABCC1): > 50 µM
IC50 (A431-parent cells): 2.69 µM
Structure (SMILES): C[C@@H]1CN(C(=O)c2ccc(NC(=O)c3cc(O[C@H](C)c4c(Cl)ccc(F)c4Cl)c(N)nn3)cc2)C[C@H](C)N1 [ensartinib, Ensartinib]
IC50 at 48 h [1]: 23.3 µM
combination effect (Chou-Talalay combination index) (MDCKII-ABCG2 cells; 10 µM ensartinib with mitoxantrone): synergistic (synergistic (CI < 0.9))
RR (reversal ratio) (MDCKII-ABCG2 cells; mitoxantrone, IC50 single drug / IC50 combined with 10 µM ensartinib): 6.16
IC50 at 48 h [2]: 29.6 µM
combination effect (Chou-Talalay combination index) (HL60-ABCB1 cells; 10 µM ensartinib with daunorubicin): synergistic (synergistic (CI < 0.9))
RR (reversal ratio) (HL60-ABCB1 cells; daunorubicin, IC50 single drug / IC50 combined with 10 µM ensartinib): 22.1
change in mRNA levels of ABCB1, ABCG2, ABCC1 (ABCB1, ABCG2, ABCC1 mRNA): did not increase or reduce the mRNA levels of ABCB1, ABCG2, or ABCC1 by more than 100% or 50%

From article PMC7226045, “Ensartinib (X-396) Effectively Modulates Pharmacokinetic Resistance Mediated by ABCB1 and ABCG2 Drug Efflux Transporters and CYP3A4 Biotransformation Enzyme” (Cancers, 2020)
